pIC50: −log10 of the molar value. Like-named read-outs stand apart in the source and are kept apart here.
Biological target: T1, mouse TMEM16A mutant V543A (Mus musculus, UniProt Q8BHY3, V543A)
T1 construct: expressed in transfected cells; host or cells: HEK293T
T1 sequence (Q8BHY3 1-960 V543A): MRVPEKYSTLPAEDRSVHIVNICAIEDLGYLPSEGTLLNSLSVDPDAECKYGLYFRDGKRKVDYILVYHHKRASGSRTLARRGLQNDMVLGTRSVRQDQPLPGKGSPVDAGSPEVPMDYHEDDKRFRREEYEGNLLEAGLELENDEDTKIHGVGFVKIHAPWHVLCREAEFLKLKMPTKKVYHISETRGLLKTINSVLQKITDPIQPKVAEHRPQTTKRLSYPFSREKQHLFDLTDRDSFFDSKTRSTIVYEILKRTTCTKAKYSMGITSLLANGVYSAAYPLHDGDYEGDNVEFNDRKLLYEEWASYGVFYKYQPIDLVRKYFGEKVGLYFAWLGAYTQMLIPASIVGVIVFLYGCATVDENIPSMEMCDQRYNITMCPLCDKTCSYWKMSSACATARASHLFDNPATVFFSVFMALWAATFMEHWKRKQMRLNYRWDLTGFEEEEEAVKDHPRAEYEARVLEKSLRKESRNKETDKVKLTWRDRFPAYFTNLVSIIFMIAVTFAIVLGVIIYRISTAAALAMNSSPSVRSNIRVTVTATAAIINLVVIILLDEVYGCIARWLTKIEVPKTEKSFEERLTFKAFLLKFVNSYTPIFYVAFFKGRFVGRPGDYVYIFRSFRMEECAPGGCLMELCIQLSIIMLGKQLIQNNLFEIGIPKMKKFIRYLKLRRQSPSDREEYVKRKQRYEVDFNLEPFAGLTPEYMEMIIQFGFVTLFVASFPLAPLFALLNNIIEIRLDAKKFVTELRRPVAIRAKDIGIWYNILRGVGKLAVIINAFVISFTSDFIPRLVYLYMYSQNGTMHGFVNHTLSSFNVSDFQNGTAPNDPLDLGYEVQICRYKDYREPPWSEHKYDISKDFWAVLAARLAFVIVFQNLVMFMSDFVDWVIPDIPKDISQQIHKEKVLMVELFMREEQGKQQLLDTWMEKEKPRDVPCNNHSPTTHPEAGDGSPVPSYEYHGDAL
Experiment: Inside-out patch recording of 1PBC block, mutant V543A
Assay type: cell-based
Settings: for remaining activity at 30 µM: 1PBC 30; for remaining activity at 30 µM / remaining activity at 100 µM: read-out: fraction of unblocked current; for remaining activity at 100 µM: 1PBC 100
Experimental: HEK293T cells (ATCC CRL-1573) were maintained in Dulbecco’s modified Eagle’s medium (DMEM; Sigma-Aldrich) supplemented with 10 U ml^−1 penicillin, 0.1 mg ml^−1 streptomycin (Sigma-Aldrich), 2 mM L-glutamine (Sigma-Aldrich), and 10% FBS (Sigma-Aldrich) in a humidified atmosphere containing 5% CO2 at 37 °C. HEK293S GnTI^− cells (ATCC CRL-3022) were maintained in HyClone HyCell TransFx-H medium (GE Healthcare) supplemented with 10 U ml^−1 penicillin, 0.1 mg ml^−1 streptomycin, 4 mM L-glutamine, 0.15% poloxamer 188 (Sigma-Aldrich), and 1% FBS in an atmosphere containing 5% CO2 at 185 rpm at 37 °C. The ac splice variant of mouse TMEM16A (UniProt ID: Q8BHY3), mouse TMEM16B (UniProt ID: Q8CFW1), or mouse TMEM16F (UniProt ID: Q6P9J9) bearing a 3C cleavage site, a Venus YFP, a Myc tag, and a Streptavidin-binding peptide (SBP) downstream of the open reading frame in a modified pcDNA3.1 vector (Invitrogen) were used as described previously[21],[31]. Mutations were introduced using a modified QuikChange method[58] and were verified by sequencing.
HEK293T cells were transfected with 3–4 μg DNA per 6 cm Petri dish using the calcium phosphate co-precipitation method and were used within 24–96 h after transfection. Recordings were performed on inside-out patches excised from HEK293T cells expressing the construct of interest. Patch pipettes were pulled from borosilicate glass capillaries (O.D. 1.5 mm, I.D. 0.86 mm, Sutter Instrument) and were fire-polished with a microforge (Narishige) before use. Pipette resistance was typically 3–8 MΩ when filled with the recording solutions detailed below. Seal resistance was typically 4 GΩ or higher. Voltage-clamp recordings were made using Axopatch 200B, Digidata 1550, and Clampex 10.7 (Molecular Devices). Analog signals were filtered with the in-built 4-pole Bessel filter at 10 kHz and were digitized at 20 kHz. Solution exchange was achieved using a gravity-fed system through a theta glass pipette mounted on an ultra-fast piezo-driven stepper (Siskiyou). […] All recordings were performed at 20 °C.
A symmetrical ionic condition was used throughout. Stock solution with Ca^2+-EGTA contained 150 mM NaCl, 5.99 mM Ca(OH)2, 5 mM EGTA, and 10 mM HEPES at pH 7.40. Stock solution with EGTA contained 150 mM NaCl, 5 mM EGTA, and 10 mM HEPES at pH 7.40. Free Ca^2+ concentrations were adjusted by mixing the stock solutions at the required ratios calculated using the WEBMAXC program (http://web.stanford.edu/~cpatton/webmaxcS.htm). Patch pipettes were filled with the stock solution with Ca^2+-EGTA, which has a free Ca^2+ concentration of 1 mM. 1PBC (ChemBridge) stock was reconstituted in anhydrous DMSO (Sigma-Aldrich) at 100 mM and stored at −20 °C. Working solutions with 1PBC were prepared by serial dilution. Unless otherwise stated, experiments were performed at a saturating Ca^2+ concentration as shown in Supplementary Table 1 and the primary data were corrected for current rundown as described previously[21],[25].
Concentration-response relations, obtained from the ratio of the I-V plots before and after the application of the blocker, were fitted to the Hill equation,1 I/Imax=1/1+IC50/[blocker]^h where I/Imax is the normalized current responses, IC50 defines the concentration at which inhibition is at its half-maximum, and h is the Hill coefficient.

## N#Cc1c(C(F)(F)F)cc(O)n2c1nc1ccccc12 [1PBC]
-60 mV
  remaining activity at 30 µM: 39.5%
  remaining activity at 100 µM: 16%
-80 mV
  remaining activity at 30 µM: 43.8%
  remaining activity at 100 µM: 18.7%
-100 mV
  remaining activity at 30 µM: 47.1%
  remaining activity at 100 µM: 21.8%
-120 mV
  remaining activity at 30 µM: 51.5%
  remaining activity at 100 µM: 25%
-140 mV
  remaining activity at 30 µM: 54.7%
  remaining activity at 100 µM: 27.8%
0 mV
  remaining activity at 100 µM: 9.46%
20 mV
  remaining activity at 100 µM: 7.3%
40 mV
  remaining activity at 100 µM: 6.78%
60 mV
  remaining activity at 100 µM: 6.85%
80 mV
  remaining activity at 100 µM: 6.35%
  log-fold IC50 (change of mutant vs WT): 0.6263
100 mV
  remaining activity at 100 µM: 6.17%
120 mV
  remaining activity at 100 µM: 6.44%
140 mV
  remaining activity at 100 µM: 6.48%
-20 mV
  remaining activity at 100 µM: 11.6%
-40 mV
  remaining activity at 100 µM: 13.7%
20 mV, 15 µM Ca2+
  pIC50: 5.02
40 mV, 15 µM Ca2+
  pIC50: 5.06
60 mV, 15 µM Ca2+
  pIC50: 5.09
80 mV, 15 µM Ca2+
  pIC50: 5.10
100 mV, 15 µM Ca2+
  pIC50: 5.08
120 mV, 15 µM Ca2+
  pIC50: 5.05
140 mV, 15 µM Ca2+
  pIC50: 5.02
-20 mV, 15 µM Ca2+
  pIC50: 4.88
-40 mV, 15 µM Ca2+
  pIC50: 4.81
-60 mV, 15 µM Ca2+
  pIC50: 4.73
-80 mV, 15 µM Ca2+
  pIC50: 4.66
-100 mV, 15 µM Ca2+
  pIC50: 4.59
-120 mV, 15 µM Ca2+
  pIC50: 4.52
-140 mV, 15 µM Ca2+
  pIC50: 4.46
V543A, V 0 mV
  pIC50: 4.95
V543A, V 20 mV
  pIC50: 5.02
V543A, V 40 mV
  pIC50: 5.06
V543A, V 60 mV
  pIC50: 5.09
V543A, V 80 mV
  pIC50: 5.10
V543A, V 100 mV
  pIC50: 5.08
V543A, V 120 mV
  pIC50: 5.05
V543A, V 140 mV
  pIC50: 5.02
V543A, V -20 mV
  pIC50: 4.88
V543A, V -40 mV
  pIC50: 4.81
V543A, V -60 mV
  pIC50: 4.73
V543A, V -80 mV
  pIC50: 4.66
V543A, V -100 mV
  pIC50: 4.59
V543A, V -120 mV
  pIC50: 4.52
V543A, V -140 mV
  pIC50: 4.46

Reference: publication PMC9120017, “Inhibition mechanism of the chloride channel TMEM16A by the pore blocker 1PBC” (Nature Communications, 2022)
